What all share (assay type): in vivo
Assay [1] concerns Digitaria sanguinalis. Put plainly: Pre-emergence herbicidal action, greenhouse, 320 g/ha. Conditions: application rate 320 g/ha, Table B9. The text has this:
(§1) Seeds of monocotyledonous and dicotyledonous weed plants and crop plants were placed in plastic or organic planting pots and covered with soil. The compounds of the invention, formulated in the form of wettable powders (WP) or as emulsion concentrates (EC), were then applied to the surface of the covering soil as aqueous suspension or emulsion with addition of 0.5% additive at a water application rate equivalent to […]. After the treatment, the pots were placed in a greenhouse and kept under good growth conditions for the test plants. After about 3 weeks, the effect of the preparations is scored visually in comparison with untreated controls as percentages. For example, 100% activity=the plants have died, 0% activity=like control plants. Tables B1 to B14 below show the effects of selected compounds of the general formula (I) according to Tables I.1 to I.150 on various harmful plants and at an application rate corresponding to 320 g/ha, which were obtained by the experimental procedure mentioned above.

Assay [2] concerns Alopecurus myosuroides. The description is as above. Conditions: application rate 320 g/ha, scored visually after about 3 weeks vs untreated controls.
Text: as §1

The test system of assay [3] is Setaria viridis. The description is as above. Conditions: application rate 320 g/ha, Table B11.
Text: as §1

Assay [4] relates to Polygonum convolvulus. The assay is described as above. Conditions: application rate 320 g/ha, scored visually after about 3 weeks vs untreated controls.
Text: as §1

Assay [5] relates to Veronica persica. The assay is described as above. The conditions noted are these: application rate 320 g/ha, Table B13.
Text: as §1

Assay [6] has as its system Amaranthus retroflexus. Described as above. Conditions: application rate 320 g/ha, scored visually after about 3 weeks vs untreated controls.
Text: as §1

In assay [7] the test system is Matricaria inodora. Described as above. The conditions noted are these: application rate 320 g/ha, scored visually after about 3 weeks vs untreated controls.
Text: as §1

The test system of assay [8] is Abutilon theophrasti. The description is as above. Conditions: application rate 320 g/ha, scored visually after about 3 weeks vs untreated controls.
Text: as §1

Assay [9] deals with Pharbitis purpurea. The description is as above. Conditions: application rate 320 g/ha, Table B12.
Text: as §1

Assay [10] concerns Stellaria media. Described as above. Conditions: application rate 320 g/ha, scored visually after about 3 weeks vs untreated controls.
Text: as §1

The test system of assay [11] is Viola tricolor. Described as above. Conditions: application rate 320 g/ha, Table B8.
Text: as §1

Assay [12] concerns Avena fatua. Described as above. The conditions noted are these: application rate 320 g/ha, scored visually after about 3 weeks vs untreated controls.
Text: as §1

Assay [13] has as its system Amaranthus retroflexus. The assay can be described thus: Post-emergence herbicidal action, greenhouse, 320 g/ha. The conditions noted are these: application rate 320 g/ha, rated visually after about 3 weeks vs untreated controls. The method, then:
(§2) Seeds of monocotyledonous and dicotyledonous weeds and crop plants were placed in sandy loam in plastic or wood-fiber pots, covered with soil and cultivated in a greenhouse under controlled growth conditions. 2 to 3 weeks after sowing, the test plants were treated at the one-leaf stage. The compounds of the invention, formulated in the form of wettable powders (WP) or as emulsion concentrates (EC), were then sprayed onto the green parts of the plants as aqueous suspension or emulsion with addition of 0.5% additive at a water application rate of […] (converted). After the test plants had been kept in the greenhouse under optimum growth conditions for about 3 weeks, the activity of the preparations was rated visually in comparison to untreated controls. For example, 100% activity=the plants have died, 0% activity=like control plants. Tables A1 to A14 below show the effects of selected compounds of the general formula (I) according to Tables 1.1 to 1.150 on various harmful plants and at an application rate corresponding to 320 g/ha, which were obtained by the experimental procedure mentioned above.

The test system of assay [14] is Stellaria media. Described as above. The conditions noted are these: application rate 320 g/ha, rated visually after about 3 weeks vs untreated controls. The method, then: as §2
For assay [15], the system named is Viola tricolor. The description is as above. The conditions noted are these: application rate 320 g/ha, rated visually after about 3 weeks vs untreated controls. Here is the method:
as §2

Assay [16] has as its system Amaranthus retroflexus. The assay can be described thus: Herbicidal post-emergence action (Part 2), 1280 g/ha. Conditions: application rate 1280 g/ha, rated visually after about 3 weeks, Table C5. Here is the method:
(§3) Seeds of mono- and dicotyledonous weed plants were placed in plastic pots in sandy loam soil (doubly sown with in each case one species of mono- or dicotyledonous weed plants per pot), covered with soil and cultivated in a greenhouse under controlled growth conditions. 2 to 3 weeks after sowing, the test plants were treated at the one-leaf stage. The compounds of the invention, formulated in the form of wettable powders (WP) or as emulsion concentrates (EC), were applied onto the green parts of the plants as aqueous suspension or emulsion with addition of 0.5% additive at a water application rate of 600 liters per hectare (converted). After the test plants had been kept in the greenhouse under optimum growth conditions for about 3 weeks, the activity of the preparations was rated visually in comparison to untreated controls. For example, 100% activity=the plants have died, 0% activity=like control plants. Tables C1 to C7 below show the effects of selected compounds of the general formula (I) according to Tables 1.1 to 1.150 on various harmful plants and at an application rate corresponding to 1280 g/ha, which were obtained by the experimental procedure mentioned above.

Assay [17] relates to Matricaria inodora. The assay is described as above. The conditions noted are these: application rate 1280 g/ha, rated visually after about 3 weeks, Table C6. Here is the method: as §3
Assay [18] relates to Stellaria media. The assay is described as above. The conditions noted are these: application rate 1280 g/ha, rated visually after about 3 weeks, Table C7. Here is the method: as §3
In assay [19] the test system is Poa annua. The description is as above. Conditions: application rate 1280 g/ha, rated visually after about 3 weeks, Table C2. The method, then: as §3
The test system of assay [20] is Setaria viridis. The assay can be described thus: Herbicidal pre-emergence action (Part 2), 1280 g/ha. The conditions noted are these: application rate 1280 g/ha, scored visually after about 3 weeks, Table D4. From the text:
(§4) Seeds of mono- and dicotyledonous weed plants were placed in plastic pots in sandy loam soil (doubly sown with in each case one species of mono- or dicotyledonous weed plants per pot) and covered with soil. The compounds of the invention, formulated in the form of wettable powders (WP) or as emulsion concentrates (EC), were then applied onto the surface of the covering soil as aqueous suspension or emulsion with addition of 0.5% additive at a water application rate of 600 liters per hectare (converted). After the treatment, the pots were placed in a greenhouse and kept under good growth conditions for the test plants. After about 3 weeks, the effect of the preparations was scored visually in comparison with untreated controls as percentages. For example, 100% activity=the plants have died, 0% activity=like control plants. Tables D1 to D8 below show the effects of selected compounds of the general formula (I) according to Tables 1.1 to 1.150 on various harmful plants and at an application rate corresponding to 1280 g/ha, which were obtained by the experimental procedure mentioned above.

Assay [21] deals with Echinochloa crus-galli. The description is as above. Conditions: application rate 1280 g/ha, scored visually after about 3 weeks, Table D1.
Text: as §4

The subject of assay [22] is Amaranthus retroflexus. The assay is described as above. Conditions: application rate 1280 g/ha, scored visually after about 3 weeks, Table D6.
Text: as §4

In assay [23] the test system is Matricaria inodora. Described as above. The conditions noted are these: application rate 1280 g/ha, scored visually after about 3 weeks, Table D7.
Text: as §4

Assay [24] has as its system Abutilon theophrasti. Described as above. The conditions noted are these: application rate 1280 g/ha, scored visually after about 3 weeks, Table D5.
Text: as §4

In assay [25] the test system is Stellaria media. Described as above. Conditions: application rate 1280 g/ha, scored visually after about 3 weeks, Table D8.
Text: as §4

Assay [26] deals with Poa annua. The assay is described as above. The conditions noted are these: application rate 1280 g/ha, scored visually after about 3 weeks, Table D3.
Text: as §4

As for `CN1CCC(O)N(c2cc(C(F)(F)F)c(Br)cn2)C1=O` (stereo not drawn) [I.1-464], the “Digitaria sanguinalis (efficacy in %)” value in assay [1] is listed as 100%. Further, the “Alopecurus myosuroides (efficacy in %)” value in assay [2] stood at 80%. The “Setaria viridis (efficacy in %)” value in assay [3] is recorded as 100%. Also, the “Polygonum convolvulus (efficacy in %)” value in [4] amounted to 100%. For the same compound, in [5], the “Veronica persica (efficacy in %)” value stood at 100%. Further, the “Amaranthus retroflexus (efficacy in %)” value in assay [6] and in assay [13] was 100% in each case. The “Matricaria inodora (efficacy in %)” value in assay [7] was found to be 100%. Also, in assay [8], the “Abutilon theophrasti (efficacy in %)” value was 100%. The “Pharbitis purpurea (efficacy in %)” value in assay [9] is 100%. Moreover, the “Stellaria media (efficacy in %)” value is 100% in assay [10] and 90% in [14]. Also, the “Viola tricolor (efficacy in %)” value in [11] and in assay [15] was 100% in each case. For the same compound, the “Avena fatua (efficacy in %)” value in assay [12] turned out to be 80%.

With `CC(=O)OC1CCN(C)C(=O)N1c1cc(C(C)(C)C)no1` (stereo not drawn) [I.2-290, 3-(3-tert-Butyl-1,2-oxazol-5-yl)-1-methyl-2-oxohexahydropyrimidin-4-yl Acetate], the Amaranthus retroflexus in assay [16] and in assay [22] was 100% each time. Moreover, the results for the Matricaria inodora in [17] and in assay [23] were 90% and 100%, respectively. Further, the Stellaria media in assay [18] and in assay [25] was 100% in each case. In addition, the “Poa Annua” value in [19] is on record as 90%; in assay [26] it was 100%. The Setaria viridis in assay [20] was 90%. Besides, in assay [21], the Echinochloa crus-galli stood at 90%. The compound further returned an Abutilon theophrasti in [24] of 100%.

Consider `CCCC(=O)OC1N(c2cc(C(C)(C)C)on2)C(=O)N(C)CC1(C)C` (stereo not drawn) [I.66-162], for which the Amaranthus retroflexus was 100% in assay [16] and 90% in assay [22]. In addition, the “Poa Annua” value worked out at 90% in assay [19] and 100% in assay [26]. In [21], the Echinochloa crus-galli is reported as 90%. The Matricaria inodora in [23] is 100%. Besides, the Abutilon theophrasti in [24] amounted to 100%.

For the compound `CC(=O)OC1N(c2cc(C(C)(C)C)on2)C(=O)N(C)CC12CCC2` (stereo not drawn) [I.82-162], the Amaranthus retroflexus in [16] and in assay [22] was 100% each time. The “Poa Annua” value in [19] is recorded as 90%; in assay [26], 100%. Also, in assay [23], the Matricaria inodora is listed as 100%. In addition, the Stellaria media in assay [25] came to 90%.

(Values after patent publication US20200390100A1, “SUBSTITUTED N-HETEROCYCLYL- AND N-HETEROARYL-TETRAHYDROPYRIMIDINONES AND THE SALTS THEREOF, AND THE USE OF SAME AS HERBICIDAL ACTIVE SUBSTANCES” (Bayer Aktiengesellschaft, priority 2017, published 2020).)
